Data on two molecules can be found in publication PMC4767465, “NF-κB drives acquired resistance to a novel mutant-selective EGFR inhibitor” (Oncotarget, 2015).

Read-outs that look alike come from different tables or passages of the source. Bounds are passed on as bounds.

In one test the target is EGFR-L858R/T790M (Homo sapiens, UniProt P00533, L858R/T790M). Nature of the test: radiometric HotSpot recombinant kinase assay, […] compound, […] ATP; about […] inhibition. The class given is biochemical.
Test [1] deals with EGFR (Homo sapiens, UniProt P00533, DEL746-750/T790M). Nature of the test: EGFR phosphorylation in PC9GR4 cells, […] h treatment. In kind it is cell-based.
The target in test [2] is EGFR (Homo sapiens, UniProt P00533, T790M). Nature of the test: EGFR phosphorylation in transfected […] cells. In kind it is cell-based.
In test [3] the target is EGFR (Homo sapiens, UniProt P00533, DEL746-750). Nature of the test: EGFR phosphorylation in PC9 and HCC-827 cells, […] h treatment. The class given is cell-based.
The target of another test is T1, Chk2 (Homo sapiens, UniProt O96017).
T1 construct: gene CHEK2
Nature of the test: radiometric HotSpot recombinant kinase assay, […] compound, […] ATP. The class given is biochemical.

In the next test the target is WT-EGFR (Homo sapiens, UniProt P00533). The description is as above. In kind it is biochemical.
The next test concerns NCI-H596. Kind of test: cells. The arrangement: anti-proliferative effect in NSCLC cell lines, 50% growth inhibition concentration (GI50). The note with it: Homo sapiens, NCI-H596. The text has this:
(§1) The exceptional activity of the inhibitor in EGFR-T790M cells was further confirmed in three-dimensional tumor spheroids derived from NCI-H1975 cells. […] Furthermore, increase of cellular fragments in Sub-G1 phase, chromatin condensation and nuclear fragmentation were observed after treatment with the EGFR-TKI (Supplementary Figure 3A). […] The human NSCLC cell lines A549, Calu-1, Calu-6, NCI-H460, NCI-H292, NCI-H1299, NCI-H1730, NCI-H23, NCI-H3255, NCI-H520, NCI-H522, NCI-H596, HCC-827, SKMES-1, SW1573 and NCI-H1975 and the human epidermoid carcinoma A431 cells were purchased from ATCC (Manassas, VA), and cultured as recommended. 293H cells were purchased from Invitrogen (Carlsbad, CA). PC9, PC9GR4, PC9DR1 and HCC-827 GR5 were a kind gift of Dr. Pasi A. Jänne, Harvard University, Boston, MA [13]. PC9/ER, HCC-827/R1 and H3255/XLR cells are isogenic erlotinib- or XL-647-resistant lines derived from PC9, HCC-827 and NCI-H3255 cells, respectively, as previously described. Additional information on cell cultures procedures is reported in the Supplemental Methods.

Another test concerns NCI-H1703. Nature of the test: cells. The arrangement: anti-proliferative effect in NSCLC cell lines, 50% growth inhibition concentration (GI50). The note with it: Homo sapiens, NCI-H1703; read-out: CNX-2006 GI50.
Description: as §1

Another test has as its system NCI-H292. Kind of test: cells. The arrangement: anti-proliferative effect in NSCLC cell lines, 50% growth inhibition concentration (GI50). As to conditions: Homo sapiens, NCI-H292; read-out: CNX-2006 GI50.
Description: as §1

The next test has as its system NCI-H460. Kind of test: cells. The arrangement: anti-proliferative effect in NSCLC cell lines, 50% growth inhibition concentration (GI50). The note with it: Homo sapiens, NCI-H460.
Description: as §1

Another test concerns NCI-H23. Kind of test: cells. The note with it: Homo sapiens, NCI-H23; read-out: CNX-2006 GI50. The arrangement: anti-proliferative effect in NSCLC cell lines, 50% growth inhibition concentration (GI50).
Description: as §1

A further test deals with PC9. Kind of test: cells. The arrangement: anti-proliferative effect in NSCLC cell lines, 50% growth inhibition concentration (GI50). The note with it: Homo sapiens, PC-9.
Description: as §1

In a further test the test system is SW1573. Kind of test: cells. The arrangement: anti-proliferative effect in NSCLC cell lines, 50% growth inhibition concentration (GI50). The note with it: Homo sapiens, SW1573.
Description: as §1

The next test deals with NCI-H3255. Kind of test: cells. The arrangement: anti-proliferative effect in NSCLC cell lines, 50% growth inhibition concentration (GI50). The note with it: Homo sapiens, NCI-H3255.
Description: as §1

The subject of the next test is Calu-1. Nature of the test: cells. The arrangement: anti-proliferative effect in NSCLC cell lines, 50% growth inhibition concentration (GI50). As to conditions: Homo sapiens, Calu-1.
Description: as §1

In a further test the test system is SKMES-1. Kind of test: cells. The note with it: Homo sapiens, SK-MES-1; read-out: CNX-2006 GI50. The arrangement: anti-proliferative effect in NSCLC cell lines, 50% growth inhibition concentration (GI50).
Description: as §1

Another test has as its system NCI-H1299. Nature of the test: cells. As to conditions: Homo sapiens, NCI-H1299; read-out: CNX-2006 GI50. The arrangement: anti-proliferative effect in NSCLC cell lines, 50% growth inhibition concentration (GI50).
Description: as §1

Another test relates to A549. Kind of test: cells. The arrangement: anti-proliferative effect in NSCLC cell lines, 50% growth inhibition concentration (GI50). As to conditions: Homo sapiens, A549.
Description: as §1

Another test relates to NCI-H522. Nature of the test: cells. The arrangement: anti-proliferative effect in NSCLC cell lines, 50% growth inhibition concentration (GI50). As to conditions: Homo sapiens, NCI-H522; read-out: CNX-2006 GI50.
Description: as §1

In the next test the test system is HCC-827. Kind of test: cells. The arrangement: anti-proliferative effect in NSCLC cell lines, 50% growth inhibition concentration (GI50). As to conditions: Homo sapiens, HCC827.
Description: as §1

A further test deals with NCI-H520. Kind of test: cells. The arrangement: anti-proliferative effect in NSCLC cell lines, 50% growth inhibition concentration (GI50). As to conditions: Homo sapiens, NCI-H520; read-out: CNX-2006 GI50.
Description: as §1

A further test has as its system NCI-H1975. Kind of test: cells. The arrangement: anti-proliferative effect in NSCLC cell lines, 50% growth inhibition concentration (GI50). As to conditions: Homo sapiens, NCI-H1975; read-out: CNX-2006 GI50.
Description: as §1

Another test concerns Calu-6. Nature of the test: cells. The arrangement: anti-proliferative effect in NSCLC cell lines, 50% growth inhibition concentration (GI50). As to conditions: Homo sapiens, Calu-6; read-out: CNX-2006 GI50.
Description: as §1

T1 sequence (O96017 whole entry): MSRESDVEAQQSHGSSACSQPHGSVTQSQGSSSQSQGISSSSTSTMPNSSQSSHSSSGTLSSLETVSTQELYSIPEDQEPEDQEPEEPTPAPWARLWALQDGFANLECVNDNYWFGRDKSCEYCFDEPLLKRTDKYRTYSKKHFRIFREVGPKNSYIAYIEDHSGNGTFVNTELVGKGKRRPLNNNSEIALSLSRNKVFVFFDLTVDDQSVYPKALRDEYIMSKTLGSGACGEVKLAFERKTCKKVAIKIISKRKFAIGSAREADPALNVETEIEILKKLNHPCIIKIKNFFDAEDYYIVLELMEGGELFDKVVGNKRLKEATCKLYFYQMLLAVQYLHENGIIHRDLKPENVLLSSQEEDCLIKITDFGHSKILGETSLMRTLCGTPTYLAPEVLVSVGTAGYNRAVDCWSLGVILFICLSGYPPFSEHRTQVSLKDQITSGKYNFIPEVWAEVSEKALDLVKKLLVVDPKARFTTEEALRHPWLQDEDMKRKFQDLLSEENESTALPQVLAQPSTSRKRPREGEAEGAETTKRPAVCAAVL

Regarding `C=CC(=O)Nc1cccc(Nc2nc(Nc3ccc(NC4CN(CCF)C4)cc3OC)ncc2C(F)(F)F)c1` [CNX-2006], the inhibition at 1 µM is about 96% at EGFR-L858R/T790M, over 50% on Chk2 and over 50% at WT-EGFR. Also, the figures for the 50% inhibitory concentration (IC50) at EGFR [1] and against EGFR [3] were about 0.061 µM and 0.055 to 0.104 µM, respectively. Moreover, the “EGFR phosphorylation in transfected 293H cells” value at EGFR [2] is recorded as “CNX-2006 effectively inhibited the phosphorylation of the receptor at low nanomolar concentrations”. In addition, the GI50 in the test on NCI-H596 (read-out: CNX-2006 GI50) came out at 4.2 ± 0.3 µM; in the test on NCI-H1703, 4.3 ± 0.3 µM; in the test with NCI-H292, 0.34 ± 0.04 µM; with NCI-H460 (read-out: CNX-2006 GI50), 5 ± 0.6 µM; with NCI-H23, 2.4 ± 0.3 µM; in the test on PC9 (read-out: CNX-2006 GI50), 0.009 ± 0.001 µM. For the same molecule, the GI50 was 1.9 ± 0.2 µM with SW1573 (read-out: CNX-2006 GI50); 0.006 ± 0.002 µM in the test with NCI-H3255 (read-out: CNX-2006 GI50); 8 ± 0.3 µM in the test on Calu-1 (read-out: CNX-2006 GI50); 1.4 ± 0.1 µM in the test on SKMES-1; 4.5 ± 0.5 µM with NCI-H1299; 2.7 ± 0.1 µM with A549 (read-out: CNX-2006 GI50). For the same molecule, the GI50 in the test on NCI-H522 amounted to 1.9 ± 0.4 µM; with HCC-827 (read-out: CNX-2006 GI50), 0.003 ± 0.002 µM; in the test on NCI-H520 it was 5.2 ± 0.4 µM; in the test on NCI-H1975 it was 0.072 ± 0.002 µM; in the test on Calu-6 it was 3.2 ± 0.3 µM.

`C=CC(=O)Nc1cccc(Nc2nc(Nc3ccc(N4CCN(C(C)=O)CC4)cc3OC)ncc2C(F)(F)F)c1` [CO-1686]: the GI50 with NCI-H596 (read-out: CO-1686 GI50) was found to be 2 ± 0.1 µM; in the test with NCI-H460 (read-out: CO-1686 GI50), 2.3 ± 0.2 µM; in the test with PC9 (read-out: CO-1686 GI50) it was 0.004 ± 0.002 µM; in the test with SW1573 (read-out: CO-1686 GI50), 1.1 ± 0.1 µM; with NCI-H3255 (read-out: CO-1686 GI50), 0.005 ± 0.002 µM; in the test with Calu-1 (read-out: CO-1686 GI50) it was 2 ± 0.3 µM. For the same molecule, the concentration for 50% growth inhibition (GI50) came to 1.2 ± 0.2 µM in the test with A549 (read-out: CO-1686 GI50) and 0.002 ± 0.001 µM in the test with HCC-827 (read-out: CO-1686 GI50).

As a reminder, the inhibition is the percentage by which the read-out fell short of the control. As usually defined, the IC50 is the midpoint of a concentration-inhibition curve. A low value points to greater potency in that assay. The GI50 is the concentration at which growth is held to half of that of the control.
